# Measurements published in patent publication US20030008857A1, “Photodynamic therapy (PDT) in combination with factors that bind cell surface apoptosis-inducing receptors” (priority 1999, published 2003).
# What was measured:
# Type in all cases: cell-based, human
# Settings in all cases: TRAIL 20 ng/ml, 3 hours, Jurkat whole cell extracts
# IETDase (caspase 8) = experiment: Protease assay of cell extracts with Ac-IETD-AMC
# Description: (§1) The human Jurkat T cell line containing a neomycin resistance gene was obtained from Dr. Charles Rudin (University of Chicago). Cells were maintained in RPMI 1640 medium containing 10% heat-inactivated fetal calf serum (FCS) with penicillin (100 U/mL), streptomycin (100 μg/mL), 20 mM HEPES, 2 mM L-glutamine and G418 (1 μg/ml) purchased from Gibco BRL (Burlington, Ontario) in a CO2 incubator at 37° C. To elicit apoptosis with PDT, Jurkat cells were incubated with different amounts of liposomally formulated benzoporphyrin derivative monoacid ring A (BPD-MA, verteporfin, QLT PhotoTherapeutics, Inc., Vancouver, Canada) for one hour at 37° C. under light-protected conditions. The culture medium used for experiments was identical to that used for the passage of the cells except that FCS was used at a concentration of 5%. Experiments were conducted either in 6-well culture plates at 5×10^6 cells in a volume of 4 ml per well or in 96-well microtiter plates at 1×10^5 cells per well at 0.2 ml per well. […]
# (§2) These sequences are denoted by letter codes for each amino acid. […] The reaction mixture was incubated at 37° C. for 1 (DEVD.AMC) or 24 (VEID.AMC and IETH.AMC) h and fluorescence was measured using an excitation at 380 nm and an emission wavelength of 460 nm with a CytoFluor™ 2350 fluorescent measuring system (Perseptive Biosystems, Burlington, Ont).
# [1] = tested on: DEVDase (caspases 3 and 7); experiment: Protease assay of cell extracts with Ac-DEVD-AMC
# Description: as §1, §2
# VEIDase (caspase 6) = experiment: Protease assay of cell extracts with Ac-VEID-AMC
# Description: as §1, §2
substance,measurement,setting,value
"TRAIL: recombinant, residues 114-281 of the soluble domain of human TRAIL (BIOMOL)",increase in IETDase-like activity versus control cells,IETDase (caspase 8),two-fold
same,increase in DEVDase-like activity versus control cells,[1],approximately four-fold
same,increase in VEIDase-like activity versus control cells,VEIDase (caspase 6),two-fold
